Data on 12 compounds can be found in ChEMBL document CHEMBL4190358, “Bruton's Tyrosine Kinase Inhibitors for the Treatment of Autoimmune Diseases and Cancers” (ACS Med Chem Lett, 2017).

Each structure is given as a SMILES string. A value given as a limit tells only on which side of the number the result lay.

Sequence of Tyrosine-protein kinase BTK (Q06187 whole entry): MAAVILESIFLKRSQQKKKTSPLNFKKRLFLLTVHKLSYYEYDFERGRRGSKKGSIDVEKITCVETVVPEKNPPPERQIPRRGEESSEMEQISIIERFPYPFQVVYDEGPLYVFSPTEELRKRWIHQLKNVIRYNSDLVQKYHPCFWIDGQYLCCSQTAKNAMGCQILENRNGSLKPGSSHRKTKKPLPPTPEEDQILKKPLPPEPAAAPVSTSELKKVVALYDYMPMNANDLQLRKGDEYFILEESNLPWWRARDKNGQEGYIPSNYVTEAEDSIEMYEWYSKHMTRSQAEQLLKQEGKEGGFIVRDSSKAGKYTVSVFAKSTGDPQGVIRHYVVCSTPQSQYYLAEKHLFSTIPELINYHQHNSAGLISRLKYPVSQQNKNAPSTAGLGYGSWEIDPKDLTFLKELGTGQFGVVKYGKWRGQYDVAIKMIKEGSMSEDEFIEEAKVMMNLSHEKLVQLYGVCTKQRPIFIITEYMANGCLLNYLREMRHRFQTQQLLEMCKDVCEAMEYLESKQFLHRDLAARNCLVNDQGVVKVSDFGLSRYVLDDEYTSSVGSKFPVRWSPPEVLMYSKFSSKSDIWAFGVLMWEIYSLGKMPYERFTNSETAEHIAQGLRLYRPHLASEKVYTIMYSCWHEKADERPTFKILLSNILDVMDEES

This assay addresses Tyrosine-protein kinase BTK (Homo sapiens, UniProt Q06187). Description: Inhibition of BTK (unknown origin) using peptide substrate after 1 hr by HTRF assay. (TR-FRET usually uses a lanthanide donor and a delayed reading to cut background.)
One may read the IC50 as the concentration needed to halve the response being measured. As to `C=CC(=O)N1CC[C@@H](n2nc(-c3ccc(Sc4cccc(F)c4)cc3)c3cnccc32)C1`, the IC50 was no more than 0.01 µM.

Compound `C=CC(=O)N1CC[C@@H](n2nc(-c3ccc(Oc4cccc(OC)c4Cl)cc3)c3cnccc32)C1` had an IC50 of no more than 0.01 µM.

`C=CC(=O)N1CC[C@H](n2nc3ccncc3c2-c2ccc(Oc3cccc(Cl)c3Cl)cc2)C1` showed a 50% inhibitory concentration (IC50) of no more than 0.01 µM.

Take `CC#CC(=O)N1CCC[C@@H](n2nc(-c3ccc(C(=O)Nc4ccccn4)cc3)c3cnccc32)C1`: the half-maximal inhibitory concentration (IC50) fell in the range of 0.1 to 1 µM.

Compound `O=C(Nc1ccc(-c2nn(C3CCC(C(=O)O)CC3)c3ccncc23)cc1)c1ccccc1` (configuration not stated) came in with an IC50 of no less than 10 µM.

In the case of `C=CC(=O)N1CCC[C@@H](n2nc(-c3ccc(Oc4ccccc4)cc3)c3cnccc32)C1`, the 50% inhibitory concentration (IC50) was no more than 0.01 µM.

With `C=CC(=O)N1CC[C@@H](n2nc(-c3ccc(Oc4cccc(OC)c4F)cc3)c3c2CCN(C(C)=O)C3)C1`, the IC50 lay within 1 to 10 µM.

Turning to `C=CC(=O)N1CCC[C@@H](n2nc(-c3ccc(Oc4cccc(OC)c4F)cc3)c3cncc(OC)c32)C1`, the IC50 was 0.1 to 1 µM.

Compound `C=CC(=O)N1CCC[C@H](n2nc3ccncc3c2-c2ccc(Oc3cccc(Cl)c3Cl)cc2)C1` displayed an IC50 of no more than 0.01 µM.

Turning to `COc1cccc(Oc2ccc(-c3nn([C@@H]4CCCN(C(=O)OC(C)(C)C)C4)c4c(OC)cncc34)cc2)c1F`, the half-maximal inhibitory concentration (IC50) was no more than 0.01 µM.

On to `C=CC(=O)N1CCC[C@@H](n2nc(-c3ccc(Oc4cccc(Cl)c4)cc3)c3cnccc32)C1`, for which the IC50 was in the range of 0.01 to 0.1 µM.

Take `C=CC(=O)N1CC[C@@H](n2nc(-c3ccc(Oc4cccc(OC)c4C)cc3)c3cnccc32)C1`: the IC50 was 0.01 to 0.1 µM.
